Experimental data: patent publication US20230285514A1, “STAPLED LACTAM CO-AGONISTS OF THE GLUCAGON AND GLP-1 RECEPTORS” (Merck Sharp & Dohme LLC, priority 2019, published 2023)
*1 amine or outer side, *2 acyl side, *3 side chain or, on linkers, in order; H or OH if unused. Where a SMILES comes first, the peptide text is derived from it. Bridges are numbered along the chain shown (N, C = ends). Side-chain parts run from the residue outwards. [ ]: non-standard residue; d: D form. The star is where a group is joined. γGlu = O=C(O)[C@H](CCC(=O)[*:2])N[*:1]; Palmitoyl = CCCCCCCCCCCCCCCC(=O)*; Nle = CCCC[C@H](N)C(=O)O; Aib = CC(C)(N)C(=O)O

How the values were obtained:
human GLP1R = biological target: T1, human GLP1R (Homo sapiens, UniProt P43220); experiment: cAMP activity assay, cells expressing human GLP1R; type: cell-based; conditions: cAMP production, 1 hour, table does not say whether with or without 20% human serum, read-out: GLPIR EC50 human
T1 construct: expressed in transfected cells
Experimental: Activity of the peptides at the Glucagon receptor (GCGR) and GLP-1 receptor (GLP1R) was measured in a cAMP activity assay. Peptides were dissolved in 100% DMSO and serially diluted to generate 10 point titrations. The peptide solutions were then transferred into 384-well assay plates (150 nL/well). Assay ready frozen cells expressing human GLP1R or human GCGR were suspended in growth media consisting of DMEM medium (GIBCO), 10% FBS (GIBCO), 1×NEAA(GIBCO), 1×P/S (GIBCO), 10 ug/ml Blasticidin (GIBCO) and 200 μg/mL Hygromycin (GIBCO). […] The cell suspensions (15 μL) were then added to the assay plates containing the peptide solutions (30,000 cells/well for human GCGR; 10,000 cells/well for human GLP1R). […] Production of cAMP was determined using […] kits (DiscoverX) following manufacturer protocol. The plates were incubated for overnight at room temperature in the dark. Luminescence was measured using an EnVision Multilabel plate reader (Perkin Elmer). Native GLP-1 and Glucagon (Bachem) are used as control peptides.

human GCGR = biological target: T2, human GCGR (Homo sapiens, UniProt P47871); experiment: cAMP activity assay, cells expressing human GCGR; type: cell-based; conditions: ratio of human GCGR EC50 to human GLP1R EC50
T2 construct: expressed in transfected cells
T2 sequence (P47871 26-477): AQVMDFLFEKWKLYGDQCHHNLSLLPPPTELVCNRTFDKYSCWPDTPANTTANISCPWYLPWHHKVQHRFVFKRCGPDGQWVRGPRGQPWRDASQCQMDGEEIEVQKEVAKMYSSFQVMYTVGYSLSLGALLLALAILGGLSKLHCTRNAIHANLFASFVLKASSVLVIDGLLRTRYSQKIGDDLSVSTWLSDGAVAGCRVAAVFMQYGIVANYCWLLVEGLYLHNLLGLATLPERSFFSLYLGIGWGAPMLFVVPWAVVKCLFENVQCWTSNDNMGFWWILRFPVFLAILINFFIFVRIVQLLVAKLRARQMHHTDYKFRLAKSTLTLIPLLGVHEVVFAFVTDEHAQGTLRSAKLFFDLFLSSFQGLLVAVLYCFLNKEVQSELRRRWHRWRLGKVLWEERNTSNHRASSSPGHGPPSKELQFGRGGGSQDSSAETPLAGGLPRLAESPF

T1 sequence (P43220 24-463): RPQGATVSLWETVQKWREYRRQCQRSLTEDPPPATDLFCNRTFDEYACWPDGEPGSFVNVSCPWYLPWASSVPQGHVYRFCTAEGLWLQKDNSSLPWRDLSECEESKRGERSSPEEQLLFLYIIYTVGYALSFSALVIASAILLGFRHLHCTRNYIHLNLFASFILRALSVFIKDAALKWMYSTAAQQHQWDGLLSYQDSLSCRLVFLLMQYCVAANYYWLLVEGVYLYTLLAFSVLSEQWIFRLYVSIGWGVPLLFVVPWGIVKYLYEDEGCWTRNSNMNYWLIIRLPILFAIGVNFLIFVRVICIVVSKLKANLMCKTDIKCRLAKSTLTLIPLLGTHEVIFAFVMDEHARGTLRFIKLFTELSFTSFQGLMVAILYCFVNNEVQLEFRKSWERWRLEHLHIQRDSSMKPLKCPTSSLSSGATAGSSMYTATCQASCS

Compound | EC50 (human GLP1R) [nM] | hGCGR/hGLPIR (hTone) (human GCGR)
CCCCCCCCCCCCCCCC(=O)N[C@@H](CCC(=O)N[C@@H](CCC(=O)NCCCC[C@H](NC(=O)[C@H](CC(=O)O)NC(=O)[C@H](CO)NC(=O)[C@@H](NC(=O)[C@H](Cc1ccccc1)NC(=O)[C@@H](NC(=O)CNC(=O)[C@H](CCC(N)=O)NC(=O)[C@@H](CO)NC(=O)[C@@H](N)Cc1c[nH]cn1)[C@@H](C)O)[C@@H](C)O)C(=O)N[C@@H](CO)C(=O)N[C@@H](CCCCN)C(=O)N[C@@H](Cc1ccc(O)cc1)C(=O)N[C@@H](CC(C)C)C(=O)N[C@@H](CC(=O)O)C(=O)N[C@@H](C)C(=O)N[C@@H](CCCNC(=N)N)C(=O)N[C@@H](C)C(=O)N[C@@H](C)C(=O)N[C@H]1CCCCNC(=O)CC[C@@H](C(=O)N[C@@H](Cc2c[nH]c3ccccc23)C(=O)N[C@@H](CC(C)C)C(=O)N[C@@H](CC(C)C)C(=O)N[C@@H](CC(=O)O)C(=O)N[C@H](C(N)=O)[C@@H](C)O)NC(=O)[C@H](C(C)C)NC(=O)[C@H](Cc2ccccc2)NC(=O)[C@H](CC(=O)O)NC1=O)C(=O)O)C(=O)O [SEQ ID NO: 11] | 0.17 | 0.6
CCCCCCCCCCCCCCCC(=O)N[C@@H](CCC(=O)N[C@@H](CCC(=O)NCCCC[C@H](NC(=O)[C@H](CC(=O)O)NC(=O)[C@H](CO)NC(=O)[C@@H](NC(=O)[C@H](Cc1ccccc1)NC(=O)[C@@H](NC(=O)CNC(=O)[C@H](CCC(N)=O)NC(=O)C(C)(C)NC(=O)[C@@H](N)Cc1c[nH]cn1)[C@@H](C)O)[C@@H](C)O)C(=O)N[C@@H](CO)C(=O)N[C@@H](CCCCN)C(=O)N[C@@H](Cc1ccc(O)cc1)C(=O)N[C@@H](CC(C)C)C(=O)N[C@@H](CC(=O)O)C(=O)NC(C)(C)C(=O)N[C@H]1CCCCNC(=O)CC[C@@H](C(=O)N[C@@H](Cc2ccccc2)C(=O)N[C@H](C(=O)N[C@@H](CCC(N)=O)C(=O)N[C@@H](Cc2c[nH]c3ccccc23)C(=O)N[C@@H](CC(C)C)C(=O)N[C@@H](CCCC)C(=O)N[C@@H](CC(=O)O)C(=O)N[C@H](C(N)=O)[C@@H](C)O)C(C)C)NC(=O)[C@H](CCC(N)=O)NC(=O)[C@H](C)NC(=O)[C@H](C)NC1=O)C(=O)O)C(=O)O [SEQ ID NO: 16] (H-H[Aib]QGTFTSDK([γGlu-γGlu-Palmitoyl])SKYLD[Aib]KAAQEFVQWL[Nle]DT-NH2; lactam 17-21; N-terminus assumed) | 0.17 | 1.25
CCCCCCCCCCCCCCCC(=O)N[C@@H](CCC(=O)N[C@@H](CCC(=O)NCCCC[C@H](NC(=O)[C@H](CC(=O)O)NC(=O)[C@H](CO)NC(=O)[C@@H](NC(=O)[C@H](Cc1ccccc1)NC(=O)[C@@H](NC(=O)CNC(=O)[C@H](CCC(N)=O)NC(=O)C(C)(C)NC(=O)[C@@H](N)Cc1c[nH]cn1)[C@@H](C)O)[C@@H](C)O)C(=O)N[C@@H](CO)C(=O)N[C@@H](CCCCN)C(=O)N[C@@H](Cc1ccc(O)cc1)C(=O)N[C@@H](CC(C)C)C(=O)N[C@@H](CC(=O)O)C(=O)NC(C)(C)C(=O)N[C@@H](CCCNC(=N)N)C(=O)N[C@@H](C)C(=O)N[C@@H](C)C(=O)N[C@@H](CCC(N)=O)C(=O)N[C@@H](CC(=O)O)C(=O)N[C@@H](Cc1ccccc1)C(=O)N[C@H](C(=O)N[C@H]1CCCCNC(=O)CC[C@@H](C(=O)N[C@H](C(N)=O)[C@@H](C)O)NC(=O)[C@H](CCCC)NC(=O)[C@H](CC(C)C)NC(=O)[C@H](Cc2c[nH]c3ccccc23)NC1=O)C(C)C)C(=O)O)C(=O)O [SEQ ID NO: 17] (H-H[Aib]QGTFTSDK([γGlu-γGlu-Palmitoyl])SKYLD[Aib]RAAQDFVKWL[Nle]ET-NH2; lactam 24-28; N-terminus assumed) |  | 1.05
